Laboratory results published in ChEMBL document CHEMBL1153068, “Discriminatory synergistic effect of Trp-substitutions in superagonist [(Arg/Lys)(14), (Arg/Lys)(15)]nociceptin on ORL1 receptor binding and activation” (Bioorg Med Chem, 2009).

Legend:
[1] = target: Nociceptin receptor (Rattus norvegicus) (UniProt P35370); experiment: Relative potency, ratio of wild type nociceptin IC50 to compound IC50 for rat ORL1 receptor expressed in african green monkey COS7 cells; format: cell-based; conditions: COS-7
Chain of Nociceptin receptor (Rattus norvegicus) (P35370 whole entry): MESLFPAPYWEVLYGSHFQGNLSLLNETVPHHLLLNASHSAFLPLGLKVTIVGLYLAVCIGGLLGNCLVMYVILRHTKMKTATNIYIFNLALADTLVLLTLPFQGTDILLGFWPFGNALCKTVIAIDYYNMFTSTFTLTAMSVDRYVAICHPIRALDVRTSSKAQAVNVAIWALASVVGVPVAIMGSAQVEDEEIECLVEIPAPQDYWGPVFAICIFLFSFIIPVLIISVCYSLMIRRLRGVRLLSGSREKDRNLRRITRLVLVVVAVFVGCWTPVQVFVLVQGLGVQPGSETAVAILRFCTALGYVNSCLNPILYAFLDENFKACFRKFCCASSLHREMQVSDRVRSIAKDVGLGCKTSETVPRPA

[2] = target: Nociceptin receptor (Rattus norvegicus) (UniProt P35370); experiment: Relative potency, ratio of wild type nociceptin EC50 to compound EC50 for stimulation of [35S]GTPgammaS binding to rat ORL1 receptor expressed in african green monkey COS7 cells; format: functional, cell-based; conditions: COS-7
Nociceptin receptor [3] = target: T1, Nociceptin receptor (Rattus norvegicus, UniProt P35370); experiment: Displacement of [3H]nociceptin from rat ORL1 receptor expressed in african green monkey COS7 cells by competitive binding assay; format: cell-based, COS-7
T1 sequence (P35370 whole entry): as above

Nociceptin receptor [4] = target: T1, Nociceptin receptor; experiment: Agonist activity at rat ORL1 receptor expressed in african green monkey COS7 cells assessed as stimulation of [35S]GTPgammaS binding by radioligand receptor-binding assay; format: functional, cell-based, COS-7

Molecule | Ratio IC50 [1] | Ratio EC50 [2] | IC50 (Nociceptin receptor [3]) | EC50 (Nociceptin receptor [4])
H-FGGFTGARKSARKLWNQ-OH | 0.35 | 0.26 | – | –
H-FGGFTGARKSARKWKNQ-OH [listing 1 of 2 here] | – | – | 0.25 nM | 1.3 nM
H-FGGFTGARKSARKWRNQ-OH | 3.17 | 10 | 0.23 nM | 1.3 nM
C[C@H](NC(=O)CNC(=O)[C@@H](NC(=O)[C@H](Cc1ccccc1)NC(=O)CNC(=O)CNC(=O)[C@@H](N)Cc1ccccc1)[C@@H](C)O)C(=O)N[C@@H](CCCNC(=N)N)C(=O)N[C@@H](CCCCN)C(=O)N[C@@H](CO)C(=O)N[C@@H](C)C(=O)N[C@@H](CCCNC(=N)N)C(=O)N[C@@H](CCCCN)C(=O)N[C@@H](CCCNC(=N)N)C(=O)N[C@@H](CCCCN)C(=O)N[C@@H](CC(N)=O)C(=O)N[C@@H](CCC(N)=O)C(=O)O | 3.48 | 11.8 | – | –
H-FGGFTGARKSARKWKNQ-OH [listing 2 of 2 here] | 2.92 | 10 | – | –
H-FGGFTGARKSARKKWNQ-OH | 2.35 | 4.06 | 0.31 nM | 3.2 nM
H-FGGFTGARKSARKRWNQ-OH | 2.43 | 4.19 | 0.3 nM | 3.1 nM
H-FGGFTGARKSARKWANQ-OH | 1.78 | 2.24 | – | –
